The target of test [1] is T1, IRAK4 (Homo sapiens, UniProt Q9NWZ3).
T1 sequence (Q9NWZ3 1-460): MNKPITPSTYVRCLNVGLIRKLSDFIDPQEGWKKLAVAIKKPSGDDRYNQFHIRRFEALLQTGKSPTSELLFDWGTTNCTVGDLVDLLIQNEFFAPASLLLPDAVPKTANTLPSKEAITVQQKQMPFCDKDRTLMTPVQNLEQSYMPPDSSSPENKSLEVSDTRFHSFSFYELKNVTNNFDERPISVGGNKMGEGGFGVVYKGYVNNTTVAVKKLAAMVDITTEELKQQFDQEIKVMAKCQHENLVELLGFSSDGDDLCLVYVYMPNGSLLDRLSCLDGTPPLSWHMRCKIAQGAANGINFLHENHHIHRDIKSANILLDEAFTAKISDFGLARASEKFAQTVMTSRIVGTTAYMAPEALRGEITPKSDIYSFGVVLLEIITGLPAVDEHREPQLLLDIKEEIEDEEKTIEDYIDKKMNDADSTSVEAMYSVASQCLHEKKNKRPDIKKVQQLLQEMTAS
The experiment in a line: RBC HotSpot Kinase Assay, IRAK4. The test is classed as biochemical. Set-up: purchased Reaction Biology (RBC HotSpot). To be noted: isolated kinase enzyme, 33P-ATP, P81 filter-binding. A digest of the protocol: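 Radiometric filter-binding activity assay with isolated recombinant kinase (construct may be truncated or catalytic domain only) in 20 mM Hepes pH 7.5, 10 mM MgCl2, 1 mM EGTA, 2 mM DTT, 1% DMSO. Compound preincubated 20 min with kinase/substrate; reaction started with 33P-ATP, run 2 h at room temperature.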

In test [2] the test system is MOLM14 D835Y cells. Kind of test: MOLM14 D835Y cell viability assay (Cell Titer Glo). To be noted: Homo sapiens, MOLM-14, 48 h, cell viability, Cell Titer Glo, 48 hours; read-out: MOLM14 D835Y IC50. The class given is cell-based. In outline: (§1)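 Luminescent ATP read-out (CellTiter-Glo, 15 min room temperature) taken 48 h after compound addition. Cells were MOLM14 carrying FLT3 D835Y or F691L mutations, plated at 1000 cells per well.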
Background: In ATP-based viability assays light output follows the ATP content of the culture.

Test [3] has as its system NF-κB-inducible SEAP reporter in THP-1-Blue NF-κB cells. The experiment in a line: NF-kB SEAP reporter assay in THP-1-Blue NF-κB cells. The class given is cell-based. The following applies: 24 hours. In outline:
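Cells (1×10^5/well) stimulated with Pam3CSK4 (1 ng/mL) or hIL1B (1 ng/mL), then after 10-20 min given 10-point 1:10 compound dilutions from 1 μM or 3 μM for 24 h at 37° C. Secreted SEAP in supernatant read with QUANTI-Blue (30-60 min, 37° C) at 620 nm.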
For orientation: A reporter such as luciferase makes a cellular process visible.

The subject of test [4] is MOLM14-D835Y cells (FLT3-ITD (D835Y) mutant). The experiment in a line: Combination drug screening with venetoclax in MOLM14 (D835Y) cells (Cell Titre Glo, 10 × 10). The following applies: for Excess HSA (sum excess HSA score, combination with venetoclax): 10 × 10 dataset, Cell Titre Glo at 48 hours, optimal of 4 dose combinations, negative = synergy; for Concentration of a compound of the disclosure, or gilteritinib, needed to decrease the 62.5 nM Ven response to <10% in MOLM14(D835Y) cells: combination with 62.5 nM Venetoclax, Cell Titer Glo, 48 hours, response <10%. Set-up: Excess HSA (sum excess HSA score, combination with venetoclax): scale not given here. The test is classed as cell-based. How it is done: These assays were performed using the Cell Titre Glo assay, measured at 48 hours.
A smaller concentration indicates higher potency to synergize with Venetoclax.

Test [5] relates to MOLM14 F691L cells. Kind of test: MOLM14 F691L cell viability assay (Cell Titer Glo). The class given is cell-based. The following applies: Homo sapiens, MOLM-14; cell viability, Cell Titer Glo, 48 hours; read-out: MOLM14 F691L IC50. In outline: as §1
[6] abbreviates: THP-1-Blue NF-κB cells stimulated with Pam3CSK4 (1 ng/mL), read-out: NF-κB Pam3SCK4 IC50.
Setting [7] is: THP-1-Blue NF-κB cells stimulated with hIL1B (1 ng/mL), read-out: NF-κB IL1B IC50.

SMILES strings stand for the structures. Where two headings read alike, the source gives them in different places.

As usually defined, the IC50 is the midpoint of a concentration-inhibition curve. For the compound `COc1cc2ncc(-c3nc(N[C@H]4CNCC[C@@H]4F)ncc3F)n2nc1C1CC2(CCC2)C1` [Compound 60a, 5-fluoro-N-((3S,4S)-4-fluoropiperidin-3-yl)-4-(7-methoxy-6-(spiro[3.3]heptan-2-yl)imidazo[1,2-b]pyridazin-3-yl)pyrimidin-2-amine], the IC50 in test [1] was determined as 8 nM; in test [2], 11 nM; in test [3] (setting [6]) it was 156 nM; in test [3] (setting [7]), 200 nM; in test [5], 90 nM. The “Excess HSA (sum excess HSA score, combination with venetoclax)” value (shortened to “Excess HSA”) in test [4] is on record as −1497.3117. Also, the “Concentration of a compound of the disclosure, or gilteritinib, needed to decrease the 62.5 nM Ven response to <10% in MOLM14(D835Y) cells” value in test [4] is recorded as 25 nM.

In the case of `COc1cc2ncc(-c3ccnc(N[C@H]4CNCC[C@@H]4F)n3)n2nc1C1CCC1` [Compound 79a, 4-(6-cyclobutyl-7-methoxyimidazo[1,2-b]pyridazin-3-yl)-N-((3S,4S)-4-fluoropiperidin-3-yl)pyrimidin-2-amine], the IC50 in test [1] was 2 nM; in test [2] it was 20 nM; in test [3] (setting [6]), 340 nM; in test [3] (setting [7]), 271 nM; in test [5] it was 101 nM. In test [4], the “Excess HSA” value was −1180. In addition, in test [4], the “Concentration of a compound of the disclosure, or gilteritinib, needed to decrease the 62.5 nM Ven response to <10% in MOLM14(D835Y) cells” value turned out to be 25 nM.

Turning to `COc1cc2ncc(-c3nc(N[C@H]4CNCC[C@@H]4F)ncc3F)n2nc1C1COC1` [Compound 92a, 5-fluoro-N-((3S,4S)-4-fluoropiperidin-3-yl)-4-(7-methoxy-6-(oxetan-3-yl)imidazo[1,2-b]pyridazin-3-yl)pyrimidin-2-amine], the IC50 was under 0.5 nM in test [1]; 5 nM in test [2]; 53 nM in test [3] (setting [6]); 60 nM in test [3] (setting [7]); 40 nM in test [5]. Further, in test [4], the “Concentration of a compound of the disclosure, or gilteritinib, needed to decrease the 62.5 nM Ven response to <10% in MOLM14(D835Y) cells” value is recorded as 12.5 nM.

For the compound `CC(C)(O)c1cn2c(-c3nc(N[C@H]4CNCC[C@@H]4F)ncc3F)cnc2cn1` [Compound 100a, 2-(3-(5-fluoro-2-(((3S,4S)-4-fluoropiperidin-3-yl)amino)pyrimidin-4-yl)imidazo[1,2-a]pyrazin-6-yl)propan-2-ol], the IC50 stood at 2 nM in test [1]; 90 nM in test [2]; 69 nM in test [3] (setting [6]); 83 nM in test [3] (setting [7]); 603 nM in test [5]. In addition, the “Excess HSA” value in test [4] is on record as −1548. For the same compound, in test [4], the “Concentration of a compound of the disclosure, or gilteritinib, needed to decrease the 62.5 nM Ven response to <10% in MOLM14(D835Y) cells” value worked out at 625 nM.

For the origin of these results see patent US20260226048A1, “MULTI-CYCLIC IRAK AND FLT3 INHIBITING COMPOUNDS AND USES THEREOF” (CHILDREN'S HOSPITAL MEDICAL CENTER, priority 2023, published 2026).
